#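 Growth conditions: 96-well plates. Treatment: test compound, 48 hours, 5 concentrations. Analysis: linear interpolation between bracketing concentrations; unreached endpoints set to highest concentration. At the GI50, growth is halved.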 Calls of active or inactive are those of the source. No stated cut-off is given here; in the data, active = GI50 up to about 1.1 µM and inactive = higher.
# Assays:
# Assay in all cases: growth of human tumour cells (NCI), 48 h
# 786-0 = tested on: 786-0
# A498 = tested on: A498
# A549 = tested on: A549
# ACHN = tested on: ACHN
# BT-549 = tested on: BT-549
# CAKI-1 = tested on: CAKI-1
# CCRF-CEM = tested on: CCRF-CEM
# COLO 205 = tested on: COLO 205
# DU-145 = tested on: DU-145
# EKVX = tested on: EKVX
# HCC 2998 = tested on: HCC 2998
# HCT-116 = tested on: HCT-116
# HCT-15 = tested on: HCT-15
# HOP-62 = tested on: HOP-62
# HOP-92 = tested on: HOP-92
# HT-29 = tested on: HT-29
# Hs-578T = tested on: Hs-578T
# IGROV-1 = tested on: IGROV-1
# K562 = tested on: K562
# KM12 = tested on: KM12
# LOX IMVI = tested on: LOX IMVI
# M14 = tested on: M14
# MCF7 = tested on: MCF7
# MDA-MB-231 = tested on: MDA-MB-231
# MDA-MB-435 = tested on: MDA-MB-435
# MDA-N = tested on: MDA-N
# MOLT-4 = tested on: MOLT-4
# Malme-3M = tested on: Malme-3M
# NCI-H226 = tested on: NCI-H226
# NCI-H23 = tested on: NCI-H23
# NCI-H460 = tested on: NCI-H460
# NCI-H522 = tested on: NCI-H522
# OVCAR-3 = tested on: OVCAR-3
# OVCAR-4 = tested on: OVCAR-4
# OVCAR-5 = tested on: OVCAR-5
# OVCAR-8 = tested on: OVCAR-8
# PC-3 = tested on: PC-3
# RPMI-8226 = tested on: RPMI-8226
# RXF 393 = tested on: RXF 393
# SF-268 = tested on: SF-268
# SF-295 = tested on: SF-295
# SF-539 = tested on: SF-539
# SK-MEL-28 = tested on: SK-MEL-28
# SK-MEL-2 = tested on: SK-MEL-2
# SK-OV-3 = tested on: SK-OV-3
# SN12C = tested on: SN12C
# SNB-19 = tested on: SNB-19
# SNB-75 = tested on: SNB-75
# SR = tested on: SR
# SW-620 = tested on: SW-620
# T47D = tested on: T47D
# TK-10 = tested on: TK-10
# U-251 = tested on: U-251
# UACC-257 = tested on: UACC-257
# UACC-62 = tested on: UACC-62
# UO-31 = tested on: UO-31
# HL-60 = tested on: HL-60
# SK-MEL-5 = tested on: SK-MEL-5
# NCI/ADR-RES = tested on: NCI/ADR-RES
smiles,measurement,setting,value
O=C1NC(=O)C2(CCC(O)C2)c2cc[n+]([O-])cc21 (centres undefined),GI50,786-0,> 100 µM (inactive)
same,GI50,A498,> 100 µM (inactive)
same,GI50,A549,> 100 µM (inactive)
same,GI50,ACHN,> 100 µM (inactive)
same,GI50,BT-549,> 100 µM (inactive)
same,GI50,CAKI-1,> 100 µM (inactive)
same,GI50,CCRF-CEM,> 100 µM (inactive)
same,GI50,COLO 205,> 100 µM (inactive)
same,GI50,DU-145,> 100 µM (inactive)
same,GI50,EKVX,71.8 µM (inactive)
same,GI50,HCC 2998,> 100 µM (inactive)
same,GI50,HCT-116,> 100 µM (inactive)
same,GI50,HCT-15,> 100 µM
same,GI50,HOP-62,> 100 µM (inactive)
same,GI50,HOP-92,> 100 µM (inactive)
same,GI50,HT-29,> 100 µM (inactive)
same,GI50,Hs-578T,> 100 µM (inactive)
same,GI50,IGROV-1,> 100 µM (inactive)
same,GI50,K562,> 100 µM (inactive)
same,GI50,KM12,> 100 µM (inactive)
same,GI50,LOX IMVI,> 100 µM (inactive)
same,GI50,M14,> 100 µM (inactive)
same,GI50,MCF7,> 100 µM (inactive)
same,GI50,MDA-MB-231,> 100 µM (inactive)
same,GI50,MDA-MB-435,> 100 µM (inactive)
same,GI50,MDA-N,> 100 µM (inactive)
same,GI50,MOLT-4,> 100 µM (inactive)
same,GI50,Malme-3M,> 100 µM (inactive)
same,GI50,NCI-H226,> 100 µM (inactive)
same,GI50,NCI-H23,> 100 µM (inactive)
same,GI50,NCI-H460,> 100 µM (inactive)
same,GI50,NCI-H522,> 100 µM (inactive)
same,GI50,OVCAR-3,> 100 µM (inactive)
same,GI50,OVCAR-4,> 100 µM (inactive)
same,GI50,OVCAR-5,> 100 µM (inactive)
same,GI50,OVCAR-8,> 100 µM (inactive)
same,GI50,PC-3,> 100 µM (inactive)
same,GI50,RPMI-8226,> 100 µM (inactive)
same,GI50,RXF 393,> 100 µM (inactive)
same,GI50,SF-268,> 100 µM (inactive)
same,GI50,SF-295,> 100 µM (inactive)
same,GI50,SF-539,> 100 µM (inactive)
same,GI50,SK-MEL-28,> 100 µM (inactive)
same,GI50,SK-MEL-2,> 100 µM (inactive)
same,GI50,SK-OV-3,> 100 µM (inactive)
same,GI50,SN12C,> 100 µM (inactive)
same,GI50,SNB-19,> 100 µM (inactive)
same,GI50,SNB-75,60.1 µM (inactive)
same,GI50,SR,> 100 µM (inactive)
same,GI50,SW-620,> 100 µM (inactive)
same,GI50,T47D,> 100 µM (inactive)
same,GI50,TK-10,> 100 µM (inactive)
same,GI50,U-251,> 100 µM (inactive)
same,GI50,UACC-257,> 100 µM (inactive)
same,GI50,UACC-62,> 100 µM (inactive)
same,GI50,UO-31,> 100 µM (inactive)
COc1cc(C2c3[nH]c4ccccc4c3C[C@H]3COC(=O)N23)cc(OC)c1OC (some centres undefined),GI50,786-0,0.0304 µM (active)
same,GI50,A498,0.0745 µM (active)
same,GI50,A549,0.101 µM (active)
same,GI50,ACHN,0.214 µM (active)
same,GI50,BT-549,0.163 µM (active)
same,GI50,CAKI-1,0.885 µM (active)
same,GI50,CCRF-CEM,0.0406 µM (active)
same,GI50,COLO 205,0.0687 µM (active)
same,GI50,DU-145,0.0879 µM (active)
same,GI50,EKVX,< 0.01 µM (active)
same,GI50,HCC 2998,0.131 µM (active)
same,GI50,HCT-116,0.0416 µM (active)
same,GI50,HCT-15,0.0471 µM
same,GI50,HL-60,0.0336 µM (active)
same,GI50,HOP-62,0.0467 µM (active)
same,GI50,HOP-92,0.92 µM (active)
same,GI50,HT-29,0.097 µM (active)
same,GI50,Hs-578T,0.0219 µM (active)
same,GI50,K562,0.0349 µM (active)
same,GI50,KM12,0.0552 µM (active)
same,GI50,LOX IMVI,0.0336 µM (active)
same,GI50,M14,0.0611 µM (active)
same,GI50,MCF7,0.0406 µM (active)
same,GI50,MDA-MB-231,0.815 µM (active)
same,GI50,MDA-MB-435,0.0213 µM (active)
same,GI50,MDA-N,0.0181 µM (active)
same,GI50,MOLT-4,0.0966 µM (active)
same,GI50,Malme-3M,0.0453 µM (active)
same,GI50,NCI-H226,0.0574 µM (active)
same,GI50,NCI-H23,0.0776 µM (active)
same,GI50,NCI-H460,0.055 µM (active)
same,GI50,NCI-H522,0.015 µM (active)
same,GI50,OVCAR-3,0.0307 µM (active)
same,GI50,OVCAR-4,1.55 µM (inactive)
same,GI50,OVCAR-5,0.112 µM (active)
same,GI50,OVCAR-8,0.178 µM (active)
same,GI50,PC-3,0.0411 µM (active)
same,GI50,RPMI-8226,0.0676 µM (active)
same,GI50,RXF 393,< 0.01 µM (active)
same,GI50,SF-268,0.132 µM (active)
same,GI50,SF-295,0.0262 µM (active)
same,GI50,SF-539,0.035 µM (active)
same,GI50,SK-MEL-28,0.0796 µM (active)
same,GI50,SK-MEL-2,0.0655 µM (active)
same,GI50,SK-MEL-5,0.0266 µM (active)
same,GI50,SK-OV-3,0.0366 µM (active)
same,GI50,SN12C,0.163 µM (active)
same,GI50,SNB-19,0.0803 µM (active)
same,GI50,SNB-75,0.0923 µM (active)
same,GI50,SR,0.0373 µM (active)
same,GI50,SW-620,0.051 µM (active)
same,GI50,T47D,> 10 µM (inactive)
same,GI50,TK-10,5.36 µM (inactive)
same,GI50,U-251,0.0445 µM (active)
same,GI50,UACC-257,0.0321 µM (active)
same,GI50,UACC-62,0.0348 µM (active)
same,GI50,UO-31,0.0431 µM (active)
CNS(=O)(=O)c1ccc2c(c1)/C(=C1/Nc3ccccc3C1=O)C(=O)N2,GI50,A498,> 100 µM (inactive)
same,GI50,A549,> 100 µM (inactive)
same,GI50,ACHN,> 100 µM (inactive)
same,GI50,BT-549,66.4 µM (inactive)
same,GI50,CAKI-1,> 100 µM (inactive)
same,GI50,CCRF-CEM,30.8 µM (inactive)
same,GI50,COLO 205,> 100 µM (inactive)
same,GI50,DU-145,> 100 µM (inactive)
same,GI50,EKVX,> 100 µM (inactive)
same,GI50,HCC 2998,> 100 µM (inactive)
same,GI50,HCT-116,> 100 µM (inactive)
same,GI50,HCT-15,49.4 µM
same,GI50,HL-60,14.6 µM (inactive)
same,GI50,HOP-62,> 100 µM (inactive)
same,GI50,HT-29,> 100 µM (inactive)
same,GI50,Hs-578T,3.41 µM (inactive)
same,GI50,IGROV-1,18.7 µM (inactive)
same,GI50,K562,> 100 µM (inactive)
same,GI50,LOX IMVI,> 100 µM (inactive)
same,GI50,M14,> 100 µM (inactive)
same,GI50,MDA-MB-231,2.63 µM (inactive)
same,GI50,MDA-MB-435,> 100 µM (inactive)
same,GI50,MDA-N,> 100 µM (inactive)
same,GI50,MOLT-4,39.6 µM (inactive)
same,GI50,Malme-3M,> 100 µM (inactive)
same,GI50,NCI-H226,> 100 µM (inactive)
same,GI50,NCI-H23,9.4 µM (inactive)
same,GI50,NCI-H460,> 100 µM (inactive)
same,GI50,NCI-H522,> 100 µM (inactive)
same,GI50,NCI/ADR-RES,67.8 µM (inactive)
same,GI50,OVCAR-3,> 100 µM (inactive)
same,GI50,OVCAR-5,> 100 µM (inactive)
same,GI50,PC-3,> 100 µM (inactive)
same,GI50,RPMI-8226,> 100 µM (inactive)
same,GI50,RXF 393,> 100 µM (inactive)
same,GI50,SF-268,> 100 µM (inactive)
same,GI50,SF-295,> 100 µM (inactive)
same,GI50,SK-MEL-28,> 100 µM (inactive)
same,GI50,SK-MEL-2,> 100 µM (inactive)
same,GI50,SK-MEL-5,5.2 µM (inactive)
same,GI50,SK-OV-3,92.9 µM (inactive)
same,GI50,SN12C,> 100 µM (inactive)
same,GI50,SNB-19,20.9 µM (inactive)
same,GI50,SNB-75,> 100 µM (inactive)
same,GI50,SW-620,> 100 µM (inactive)
same,GI50,T47D,> 100 µM (inactive)
same,GI50,TK-10,> 100 µM (inactive)
same,GI50,U-251,5.04 µM (inactive)
same,GI50,UACC-257,> 100 µM (inactive)
same,GI50,UACC-62,> 100 µM (inactive)
same,GI50,UO-31,> 100 µM (inactive)
